Paper PMC11283454 (Nature Communications, 2024)
Peptide text beside a SMILES is read from it. * marks the point of attachment. Cbz = O=C(OCc1ccccc1)*

Assays:
hATE1 [1] = biological target: T1, hATE1 (Homo sapiens, UniProt O95260); experiment: Differential scanning fluorimetry of hATE1 with or without ligands; conditions: DSF; for change of melting temperature of hATE1 in the presence of ligand: absence of tRNA, result in words
RGS4 [2] = experiment: Immunoblotting, proteasomal flux; conditions: MG132 10 μM, 6 h
hATE1 [3] = biological target: T1, hATE1; experiment: MST direct binding assay, hATE1-peptide interaction; conditions: with vs without A + T arms
human ATE1 = experiment: Intact protein analysis of purified ATE1; conditions: purified recombinant ATE1, GST-tag removed, LC-MS
RGS4 [4] = experiment: Immunocytochemistry, RGS4 level in ATE1 deficient HeLa cells; conditions: ATE1-KO HeLa cells

T1 sequence (O95260 1-518 isoform O95260-2): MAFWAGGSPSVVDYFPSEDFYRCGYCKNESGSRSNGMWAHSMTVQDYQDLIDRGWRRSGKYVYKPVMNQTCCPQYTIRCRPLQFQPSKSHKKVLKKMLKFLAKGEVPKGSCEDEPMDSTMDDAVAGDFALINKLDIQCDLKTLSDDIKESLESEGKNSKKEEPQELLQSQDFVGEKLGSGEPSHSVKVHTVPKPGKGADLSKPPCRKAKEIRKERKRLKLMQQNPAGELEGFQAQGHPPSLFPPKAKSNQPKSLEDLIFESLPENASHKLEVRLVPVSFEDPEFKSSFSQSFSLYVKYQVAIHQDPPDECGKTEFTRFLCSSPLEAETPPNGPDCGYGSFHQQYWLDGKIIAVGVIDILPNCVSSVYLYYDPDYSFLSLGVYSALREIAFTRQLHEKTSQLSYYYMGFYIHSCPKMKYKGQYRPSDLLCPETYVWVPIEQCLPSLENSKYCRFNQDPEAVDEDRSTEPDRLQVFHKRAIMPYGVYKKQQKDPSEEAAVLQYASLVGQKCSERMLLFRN

With `O=C(O)CN(CCN(CC(=O)O)CC(=O)O)CC(=O)O` [EDTA] the “thermal stability decrease of ATE1 on EDTA treatment” value (hATE1 [1]; increasing amount of EDTA, duplicate measurements) was ~ 7 °C.
`CC(C)C[C@@H](C=O)NC(=O)[C@H](CC(C)C)NC(=O)[C@H](CC(C)C)NC(=O)OCc1ccccc1` [MG132] (Cbz-Leu-Leu-Leu-aldehyde) was tested, and the “RGS4 accumulation post-MG132” value (RGS4 [2]; ATE1-KO HeLa cells) was “no RGS4 accumulation” and the “normalized P.F. index (fold change), RGS4 accumulation” value (RGS4 [2]; WT ATE1 HeLa cells) was ~ 29 fold change.
For `N=C(N)NCCC[C@H](N)C(=O)O` [free arginine, arginine], the “change of melting temperature of hATE1 in the presence of ligand” value (hATE1 [1]) was “no change was observed”.
In the case of `NC(=O)CC[C@H](N)C(N)=O` [glutamine amide], the “change of melting temperature of hATE1 in the presence of ligand” value (hATE1 [1]) is reported as “no change was observed”.
RDDIAA-FAM was tested, and the “fold enhancement of binding affinity by tRNA-mimetic (A + T arms)” value (hATE1 [3]) was 15 -fold.
In the case of “WT hATE1: human arginyl-tRNA-protein transferase 1 isoform 2, wild type, recombinant”, the “small arginylated fraction of ATE1” value (human ATE1) is reported as < 3 % of total, the “RGS4 proteasomal flux / RGS4 stabilization” value (RGS4 [2]; ATE1-KO HeLa cells expressing the ATE1 construct) is reported as “restored the P.F. index” and the “RGS4 level by immunostaining” value (RGS4 [4]) is reported as “but not in those transfected with WT ATE1”.
